In US20080096848A1, “Substituted N-Aryl-9-Oxo-9H-Fluorene-1-Carboxamides and Analogs as Activators of Caspases and Inducers of Apoptosis” (CYTOVIA INC., priority 2004, published 2008):
Where two headings read alike, the source gives them in different places.

Columns and labels:
T-47D [1] = assay: Inhibition of cell proliferation (GI50), CellTiter 96 AQueous One, T-47D cells; type: cell-based; conditions: Homo sapiens, T47D, 48 h incubation, read-out: GI50 (dose for 50% inhibition of cell proliferation)
Protocol: (§1) T-47D and MX1 cells were grown and harvested as in Example 39. An aliquot of 90 μL of cells (2.2×10^4 cells/mL) was added to a well of a 96-well microtiter plate containing 10 μl of a 10% DMSO in RPMI-1640 media solution containing 1 nM to 100 μM of N-(2-methylphenyl)-9-oxo-9H-fluorene-1-carboxamide (0.1 nM to 10 μM final) or other test compound. An aliquot of 90 μL of cells was added to a well of a 96-well microtiter plate containing 10 μL of a 10% DMSO in RPMI-1640 media solution without compound as the control sample for maximal cell proliferation (AMax). The samples were mixed by agitation and then incubated at 37° C. for 48 h in a 5% CO2-95% humidity incubator. After incubation, the samples were removed from the incubator and 20 μL of CellTiter 96 AQUEOUS One Solution Cell Proliferation™ reagent (Promega) was added. The samples were mixed by agitation and incubated at 37° C. for 2-4 h in a 5% CO2-95% humidity incubator. Using an absorbance plate reader (Model 1420 Wallac Instruments), an initial reading (T=0) was made about 1-2 min after addition of the solution, employing absorbance at 490 nm. This determines the possible background absorbance of the test compounds. No absorbance for N-(2-methylphenyl)-9-oxo-9H-fluorene-1-carboxamide was found at 490 nm. After the 2-4 h incubation, the samples were read for absorbance as above (ATest).
(§2) Baseline for GI50 (dose for 50% inhibition of cell proliferation) of initial cell numbers were determined by adding an aliquot of 90 μL of cells or 90 μL of media, respectively, to wells of a 96-well microtiter plate containing 10 μL of a 10% DMSO in RPMI-1640 media solution. The samples were mixed by agitation and then incubated at 37° C. for 0.5 h in a 5% CO2-95% humidity incubator. After incubation, the samples were removed from the incubator and 20 μL of CellTiter 96 AQUEOUS One Solution Cell Proliferation™ reagent (Promega) was added. The samples were mixed by agitation and incubated at 37° C. for 2-4 h in a 5% CO2-95% humidity incubator. Absorbance was read as above, (AStart) defining absorbance for initial cell number used as baseline in GI50 determinations.
(§3) GI50 (dose for 50% inhibition of cell proliferation) is the concentration where [(ATest−Astart)/(AMax−Astart)]=0.5.

T-47D [2] = assay: Caspase cascade activation assay (Ac-DEVD-R110 fluorogenic substrate) in T-47D cells; type: cell-based, Human; conditions: 24 h incubation; for Caspase activity (Ratio): ratio of net RFU (T=3 h) of test compound to control, 0.16 to 10 μM final; for EC50: sigmoidal dose-response, read-out: Caspase potency EC50
Protocol: Human breast cancer cell lines T-47D was grown according to media component mixtures designated by American Type Culture Collection+10% FCS (Invitrogen Corporation), in a 5% CO2-95% humidity incubator at 37° C. T-47D and ZR-75-1 cells were maintained at a cell density between 30 and 80% confluency and for HL-60 at a cell density of 0.1 to 0.6×10^6 cells/mL. Cells were harvested at 600×g and resuspended at 0.65×10^6 cells/mL into appropriate media+10% FCS. An aliquot of 45 μL of cells was added to a well of a 96-well microtiter plate containing 5 μL of a 10% DMSO in RPMI-1640 media solution containing 1.6 to 100 μM of N-(2-methylphenyl)-9-oxo-9H-fluorene-1-carboxamide or other test compound (0.16 to 10 μM final). An aliquot of 45 μL of cells was added to a well of a 96-well microtiter plate containing 5 μL of a 10% DMSO in RPMI-1640 media solution without test compound as the control sample. The samples were mixed by agitation and then incubated at 37° C. for 24 h in a 5% CO2-95% humidity incubator. After incubation, the samples were removed from the incubator and 50 μL of a solution containing 20 μM of N—(Ac-DEVD)-N′-ethoxycarbonyl-R110 fluorogenic substrate (SEQ ID NO:1) (Cytovia, Inc.; U.S. Pat. No. 6,335,429), 20% sucrose (Sigma), 20 mM DTT (Sigma), 200 mM NaCl (Sigma), 40 mM Na PIPES buffer pH 7.2 (Sigma), and 500 μg/mL lysolecithin (Calbiochem) was added. The samples were mixed by agitation and incubated at room temperature. Using a fluorescent plate reader (Model 1420 Wallac Instruments), an initial reading (T=0) was made about 1-2 min after addition of the substrate solution, employing excitation at 485 nm and emission at 530 nm, to determine the background fluorescence of the control sample. After about 3 h of incubation, the samples were read for fluorescence as above (T=3 h).
The Relative Fluorescence Unit values (RFU) were used to calculate the sample readings as follows: RFU(T=3h)−Control RFU(T=0)=Net RFU(T=3h)
The activity of caspase cascade activation was determined by the ratio of the net RFU value for N-(2-methylphenyl)-9-oxo-9H-fluorene-1-carboxamide and other test compounds to that of control samples. The EC50 (nM) was determined by a sigmoidal dose-response calculation (Prism 2.0, GraphPad Software Inc.).

MX1 = assay: Inhibition of cell proliferation (GI50), CellTiter 96 AQueous One, MX1 cells; type: cell-based; conditions: Homo sapiens, 48 h incubation, read-out: GI50 (dose for 50% inhibition of cell proliferation)
Protocol: as §1, §2, §3

GI50 (T-47D [1]) [nM]	EC50 (T-47D [2]; Homo sapiens, T47D, 24 h) [nM]	melting point [°C]	EC50 (T-47D [2]) [nM]	SMILES	Caspase activity (Ratio) (T-47D [2])	GI50 (MX1) [nM]
166	231			O=C(Nc1ccccc1-n1cccn1)c1cccc2c1C(=O)c1cc([N+](=O)[O-])ccc1-2 [Example 29, 7-Nitro-N-(2-(1H-pyrazol-1-yl)phenyl)-9-oxo-9H-fluorene-1-carboxamide]	5.3	150
5040	1100			Cc1ccccc1NC(=O)c1cccc2c1Cc1ccccc1-2 [Example 13, N-(2-Methylphenyl)-9H-fluorene-1-carboxamide]	6.0	6000
45	1400			[N-]=[N+]=Nc1ccccc1NC(=O)c1cccc2c1C(=O)c1ccccc1-2 [Example 27, N-(2-Azido-phenyl)-9-oxo-9H-fluorene-1-carboxamide]	4.0	90
146	570			Cc1ccccc1NC(=O)c1cccc2c1C(=O)c1ccccc1-2 [Example A, N-(2-Methylphenyl)-9-oxo-9H-fluorene-1-carboxamide]	11.2	549
600	577			COc1ccccc1NC(=O)c1cccc2c1C(=O)c1ccccc1-2 [Example 15, N-(2-Methoxyphenyl)-9-oxo-9H-fluorene-1-carboxamide]	6.6	2000
2470	1280			O=C(Nc1ccccc1-n1cccn1)c1cccc2sc3ccccc3c12 [Example 32, N-(2-(1H-Pyrazol-1-yl)phenyl)-dibenzothiophene-1-carboxamide]	2.7	4350
665	1540	152 to 153		CN(C)c1ccccc1NC(=O)c1cccc2c1C(=O)c1ccccc1-2 [Example 10, N-(2-Dimethylaminophenyl)-9-oxo-9H-fluorene-1-carboxamide]	8.0	736
233			697	CN(C)Cc1ccccc1NC(=O)c1cccc2c1C(=O)c1ccccc1-2 [Example 20, N-(2-Dimethylaminomethylphenyl)-9-oxo-9H-fluorene-1-carboxamide]	6.7	8000
451	979			O=C(Nc1ccccc1-n1cccn1)c1cccc2c1C(=O)c1ccccc1-2 [Example 9, N-(2-(1H-Pyrazol-1-yl)-phenyl)-9-oxo-9H-fluorene-1-carboxamide]	7.7	1000
	1580	179 to 180		O=C(Nc1ccccc1-n1cccn1)c1cccc2c1Cc1ccccc1-2 [Example 12, N-(2-(1H-Pyrazol-1-yl)-phenyl)-9H-fluorene-1-carboxamide]	8.9	
415	681			[N-]=[N+]=Nc1ccc2c(c1)C(=O)c1c(C(=O)Nc3ccccc3-n3cccn3)cccc1-2 [Example 37, 7-Azido-N-(2-(1H-pyrazol-1-yl)phenyl)-9-oxo-9H-fluorene-1-carboxamide]	3.0	200
> 10000	> 10000			CN(C(=O)c1cccc2c1C(=O)c1ccccc1-2)c1ccccc1-n1cccn1 [Example 28, N-Methyl-N-(2-(1H-pyrazol-1-yl)phenyl)-9-oxo-9H-fluorene-1-carboxamide]	1.2	> 10000
	> 10000			COc1ccc(NC(=O)c2cccc3c2C(=O)c2ccccc2-3)cc1 [N-(4-Methoxyphenyl)-9-oxo-9H-fluorene-1-carboxamide]	1.8	
	> 10000			O=C(Nc1ccccc1-n1cccn1)c1cccc2oc3ccccc3c12 [Example 23, N-(2-(1H-pyrazol-1-yl)phenyl)-dibenzofuran-1-carboxamide]	1.1	
	5680			O=C(Nc1ccccc1N1CCOCC1)c1cccc2c1C(=O)c1ccccc1-2 [Example 1, N-(2-Morpholinophenyl)-9-oxo-9H-fluorene-1-carboxamide]	3.1	
	2070			CCOc1ccccc1NC(=O)c1cccc2c1C(=O)c1ccccc1-2 [N-(2-Ethoxyphenyl)-9-oxo-9H-fluorene-1-carboxamide]	8.2	
429	302			O=C(Nc1ccccc1-n1cc(Br)cn1)c1cccc2c1C(=O)c1cc([N+](=O)[O-])ccc1-2 [Example 38, N-(2-(4-Bromo-1H-pyrazol-1-yl)phenyl)-7-nitro-9-oxo-9H-fluorene-1-carboxamide]	8.0	315
	> 10000			Cc1ccccc1N(C)C(=O)c1cccc2c1C(=O)c1ccccc1-2 [Example 17, N-Methyl-N-(2-methylphenyl)-9-oxo-9H-fluorene-1-carboxamide]	1.4	

SMILES	GI50 (T-47D [1]) [nM]	EC50 (T-47D [2]; Homo sapiens, T47D, 24 h) [nM]	melting point [°C]	EC50 (T-47D [2]) [nM]	Caspase activity (Ratio) (T-47D [2])	GI50 (MX1) [nM]
O=C(Nc1ccccc1-n1cccn1)c1ccc([N+](=O)[O-])c2c1C(=O)c1cc([N+](=O)[O-])ccc1-2 [Example 31, 4,7-Dinitro-N-(2-(1H-pyrazol-1-yl)phenyl)-9-oxo-9H-fluorene-1-carboxamide]		6050			2.3	
